{
  "source": "patent US11707471B2",
  "about": "“ENPP1 inhibitors and their use for the treatment of cancer” (The Board of Trustees of the Leland Stanford Junior …, priority 2017, dated 2023)",
  "system": "4T1 tumor",
  "test": "4T1 tumor model: ENPP1 inhibition with IR, cGAMP and anti-CTLA-4",
  "assay_type": "in vivo, mouse",
  "details": "20 Gy IR then intratumoral 10 μg cGAMP on day 2, 4, 7",
  "data": [
    {"compound": "Nc1nc2c(ncn2[C@@H]2O[C@@H]3COP(=O)(O)O[C@H]4[C@@H](O)[C@H](n5cnc6c(N)ncnc65)O[C@@H]4COP(=O)(O)O[C@@H]2[C@@H]3O)c(=O)[nH]1", "note": "[cGAMP, cyclic guanosine monophosphate-adenosine monophosphate]", "values": [
      {"measurement": "effect over IR treatment", "result": "had no effect over IR treatment"}
    ]}
  ]
}
